What was measured:
[1] = system: CEC; test: Detection test with compound of formula V, normal cells CEC (Table II); format: cell-based, chicken; settings: Gallus gallus, read-out: inhibition of the growth of the cells
Procedure: (§1) Petri dishes having a diameter of 10 cm are seeded with 10^6 cells to be studied. At the end of 4 hours after seeding, the compound of formula V (with R'=R"=CH3, R'"=H) is added in the form of an aqueous solution containing 0.14 M NaCl, the solution having a volume of 100 microliters. The effect of the compound of formula V is studied at various concentrations.

[2] = system: MRC5; test: Detection test with compound of formula V, normal cells MRC5 (Table II); format: cell-based; settings: Homo sapiens, read-out: inhibition of the growth of the cells
Procedure: as §1

[3] = system: NRK; test: Detection test with compound of formula V, benign transformed cells NRK (Table II); format: cell-based; settings: Rattus norvegicus, read-out: inhibition of the growth of the cells
Procedure: as §1

[4] = system: NRK B77; test: Detection test with compound of formula V, malignant cells NRK B77 (Table II); format: cell-based; settings: Rattus norvegicus, read-out: inhibition of the growth of the cells
Procedure: as §1

[5] = system: HeLa; test: Detection test with compound of formula V, malignant cells HeLa (Table II); format: cell-based; settings: Homo sapiens, read-out: inhibition of the growth of the cells
Procedure: as §1

[6] = biological target: T1, RALD (aldehyde reductase) (Rattus norvegicus, UniProt P51635); test: In vitro test: inhibition of RALD in cellular homogenates of NRK B77 cells; format: biochemical
T1 construct: NADPH, malonic dialdehyde substrate, pH 6
T1 sequence (P51635 1-325): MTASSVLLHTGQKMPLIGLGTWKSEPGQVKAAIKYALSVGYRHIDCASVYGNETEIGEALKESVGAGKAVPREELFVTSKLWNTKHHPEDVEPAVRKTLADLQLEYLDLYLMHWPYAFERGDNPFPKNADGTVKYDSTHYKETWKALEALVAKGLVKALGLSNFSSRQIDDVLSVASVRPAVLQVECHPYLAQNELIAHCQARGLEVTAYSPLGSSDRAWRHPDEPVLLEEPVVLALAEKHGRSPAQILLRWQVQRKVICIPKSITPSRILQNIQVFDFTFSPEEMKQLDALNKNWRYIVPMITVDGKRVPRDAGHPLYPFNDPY
Procedure: Cellular homogenates of NRK B77 cells which contain about 500 micrograms of the enzyme are prepared and incubated with the compound of Example 1 at doses of 0.2 mM, 0.8 mM and 1 mM. The incubation lasts for 15, 30 or 60 minutes.
After incubation, an aliquot is added to the substrate which is 2 mM malonic dialdehyde dissolved in a phosphate buffer of pH 6 containing 0.35 mM of NADPH (co-factor of the enzyme).
The optical density is measured every minute, for 5 minutes, at 340 nm.
The transformation of NADPH into […] causes a linear reduction of the optical density. The inhibiting effect is evaluated by the difference between the variation of the optical density in the controls (without inhibitor) and the variation of the optical density with the inhibitor.

[7] = system: MRC5; test: Growth inhibition, normal diploid cells MRC5 (Table 1); format: cell-based; settings: Homo sapiens, 96 h, 4 days, read-out: Cellular growth, percentage of inhibition
Procedure: (§2) The tests are carried out in the following manner:
(§3) A culture medium, constituted by the Eagle minimum medium to which has been added 10% of calf serum, is seed with 2×10^5 cells being studied.
(§4) After 4 days of culture, the inhibition relative to non-treated control cultures is measured.

[8] = system: NRK; test: Growth inhibition, established line NRK (Table 1); format: cell-based, rat; settings: 4 days
Procedure: as §2, §3, §4

[9] = system: HeLa; test: Growth inhibition, transformed cells HeLa (Table 1); format: cell-based; settings: Homo sapiens, 96 h, 4 days, read-out: Cellular growth, percentage of inhibition
Procedure: as §2, §3, §4

[10] = system: HEp2; test: Growth inhibition, transformed cells HEp2 (Table 1); format: cell-based, human; settings: 4 days
Procedure: as §2, §3, §4

[11] = system: 293; test: Growth inhibition, transformed cells 293 (Table 1); format: cell-based, human; settings: 4 days
Procedure: as §2, §3, §4

[12] = system: NRK B77; test: Growth inhibition, transformed cells NRK B77 (Table 1); format: cell-based; settings: Rattus norvegicus, 96 h, 4 days, read-out: Cellular growth, percentage of inhibition
Procedure: as §2, §3, §4

[13] = Toxicity on mice; format: in vivo; settings: intraperitoneal
Procedure: The study of the toxicity has been carried out on mice. The product of Example 1 is administered intraperitoneally at a dosage of 3 g/kg body weight daily for 8 days.

CC(C)(N)C#CC=O
inhibition at 5 µM ([1]; 0.5 × 10^-5 M): 0%
inhibition at 100 µM ([1]; 1 × 10^-4 M): 0%
inhibition at 200 µM ([1]; 2 × 10^-4 M): 0%
inhibition at 400 µM ([1]; 4 × 10^-4 M): 10%
inhibition at 600 µM ([1]; 6 × 10^-4 M): 12%
inhibition at 5 µM ([2]; MRC5, 0.5 × 10^-5 M): 0%
inhibition at 100 µM ([2]; MRC5, 1 × 10^-4 M): 0%
inhibition at 200 µM ([2]; MRC5, 2 × 10^-4 M): 0%
inhibition at 400 µM ([2]; MRC5, 4 × 10^-4 M): 0%
inhibition at 600 µM ([2]; MRC5, 6 × 10^-4 M): 18%
inhibition at 5 µM ([3]; 0.5 × 10^-5 M): 0%
inhibition at 100 µM ([3]; 1 × 10^-4 M): 0%
inhibition at 200 µM ([3]; 2 × 10^-4 M): 0%
inhibition at 400 µM ([3]; 4 × 10^-4 M): 0%
inhibition at 600 µM ([3]; 6 × 10^-4 M): 0%
inhibition at 5 µM ([4]; NRK B77, 0.5 × 10^-5 M): 0%
inhibition at 100 µM ([4]; NRK B77, 1 × 10^-4 M): 16%
inhibition at 200 µM ([4]; NRK B77, 2 × 10^-4 M): 31%
inhibition at 400 µM ([4]; NRK B77, 4 × 10^-4 M): 57%
inhibition at 600 µM ([4]; NRK B77, 6 × 10^-4 M): 79%
inhibition at 5 µM ([5]; 0.5 × 10^-5 M): 0%
inhibition at 100 µM ([5]; 1 × 10^-4 M): 18%
inhibition at 200 µM ([5]; 2 × 10^-4 M): 36%
inhibition at 400 µM ([5]; 4 × 10^-4 M): 78%
inhibition at 600 µM ([5]; 6 × 10^-4 M): 91%

CC(C)(N)C#CC1(C)CO1 (stereo not shown) [Example 1, 5,6-epoxy-2,5-dimethyl-3-hexyne-2-amine]
inhibition of the RALD activity ([6]; 1 mM, 30 minutes): total inhibition
remaining activity at 800 µM ([6]; 0.5 h, 0.8 mM, 30 minutes): ~10%
remaining activity at 200 µM ([6]; 1 h, 0.2 mM, 60 minutes): < 25%
inhibition at 100 µM ([7]; MRC5, 1 × 10^-4 M): 0%
inhibition at 200 µM ([7]; MRC5, 2 × 10^-4 M): 0%
inhibition at 400 µM ([7]; MRC5, 4 × 10^-4 M): 0%
inhibition at 50 µM ([7]; MRC5, 5 × 10^-5 M): 0%
inhibition at 600 µM ([7]; MRC5, 6 × 10^-4 M): 0%
Cellular growth, percentage of inhibition ([8]; 6 × 10^-4 M): Dead
inhibition at 200 µM ([8]; Rattus norvegicus, 96 h, 2 × 10^-4 M, read-out: Cellular growth, percentage of inhibition): 30%
inhibition at 400 µM ([8]; Rattus norvegicus, 96 h, 4 × 10^-4 M, read-out: Cellular growth, percentage of inhibition): 60%
inhibition at 100 µM ([9]; 1 × 10^-4 M): 0%
inhibition at 200 µM ([9]; 2 × 10^-4 M): 20%
inhibition at 400 µM ([9]; 4 × 10^-4 M): 80%
inhibition at 50 µM ([9]; 5 × 10^-5 M): 0%
inhibition at 600 µM ([9]; 6 × 10^-4 M): 90%
Cellular growth, percentage of inhibition ([10]; HEp2, 6 × 10^-4 M): Dead
inhibition at 100 µM ([10]; Homo sapiens, HEp-2, 96 h, HEp2, 1 × 10^-4 M, read-out: Cellular growth, percentage of inhibition): 0%
inhibition at 200 µM ([10]; Homo sapiens, HEp-2, 96 h, HEp2, 2 × 10^-4 M, read-out: Cellular growth, percentage of inhibition): 20%
inhibition at 400 µM ([10]; Homo sapiens, HEp-2, 96 h, HEp2, 4 × 10^-4 M, read-out: Cellular growth, percentage of inhibition): 80%
inhibition at 50 µM ([10]; Homo sapiens, HEp-2, 96 h, HEp2, 5 × 10^-5 M, read-out: Cellular growth, percentage of inhibition): 0%
Cellular growth, percentage of inhibition ([11]; 293, 1 × 10^-4 M): 50%
Cellular growth, percentage of inhibition ([11]; 293, 2 × 10^-4 M): 90%
Cellular growth, percentage of inhibition ([11]; 293, 4 × 10^-4 M): Dead
Cellular growth, percentage of inhibition ([11]; 293, 5 × 10^-5 M): 20%
Cellular growth, percentage of inhibition ([11]; 293, 6 × 10^-4 M): Dead
inhibition at 100 µM ([12]; NRK B77, 1 × 10^-4 M): 0%
inhibition at 200 µM ([12]; NRK B77, 2 × 10^-4 M): 0%
inhibition at 400 µM ([12]; NRK B77, 4 × 10^-4 M): 50%
inhibition at 50 µM ([12]; NRK B77, 5 × 10^-5 M): 0%
inhibition at 600 µM ([12]; NRK B77, 6 × 10^-4 M): 60%
apparent toxicity ([13]; 3 g/kg daily for 8 days): No apparent toxicity
LD50 ([13]; mouse, in vivo, ip, read-out: DL50 (the source's name)): > 3000 mg/kg

Source: patent US4767872A, “Epoxide derivatives” (Centre National de la Recherche Scientifique (CNRS), priority 1985, dated 1988)
